Experimental data published in PMC6286156 (Cell Calcium, 2018).
Where a name gives a salt, the structure may show the parent alone.

Columns and labels:
[1] = test system: NAADP-evoked Ca^2+ release; type: biochemical, Strongylocentrotus purpuratus; details: for IC50: read-out: IC50 for inhibition of NAADP-evoked Ca2+ release; for 2° Screen (sea urchin) Ca^2+ release log(IC50): printed as log(IC50), negative values, molar implied, NAADP 70 nM
[2] = test system: lysosomal Ca^2+ content, U2OS cells; test: Counterscreen: GPN-evoked lysosomal Ca2+ release; type: cell-based, human; details: for Effect on GPN-mobilizable Ca2+ and LysoTracker (LTR) staining (in words) / Counterscreen (human cells) Ca^2+ release (% GPN): drug 30 μM; for Counterscreen (human cells) Ca^2+ release (% GPN): GPN 300 μM, peak fluo-4 F/F0; for activity at 30 µM: Homo sapiens, read-out: Counterscreen (human cells) Ca^2+ release (% GPN)
[3] = test system: specific ^32P-NAADP binding in sea urchin egg homogenates; test: 32P-NAADP radioligand binding in sea urchin egg homogenate; parameters: species or system Strongylocentrotus purpuratus; details: drug 30 μM, specific 32P-NAADP binding relative to vehicle
[4] = test system: NAADP-evoked Ca^2+ release; test: Primary screen of NAADP-evoked Ca2+ release in sea urchin egg homogenate; type: biochemical, Strongylocentrotus purpuratus; details: compound 25 μM, 6 min preincubation, NAADP 167 nM
[5] = test system: lysosomal labelling (LysoTracker Red), U2OS cells; test: Counterscreen: LysoTracker Red; type: cell-based, human; details: for Counterscreen (human cells) LTR signal (% control): drug 30 μM, minimum LTR F/F0 before GPN; for activity at 30 µM: Homo sapiens, read-out: Counterscreen (human cells) LTR signal (% control)
IP3-evoked Ca^2+ release = type: biochemical, Strongylocentrotus purpuratus
[6] = test system: cADPR-evoked Ca^2+ release; type: biochemical, Strongylocentrotus purpuratus

| SMILES | Counterscreen (human cells) Ca^2+ release (% GPN) [2] [%] | 2° Screen (sea urchin) NAADP binding (% inhibition) [3] [%] | 2° Screen (sea urchin) Ca^2+ release log(IC50) [1] | 1° Screen (sea urchin) Ca^2+ release (% NAADP): peak NAADP-evoked Ca2+ release as % of control NAADP response [4] [%] | Counterscreen (human cells) LTR signal (% control) [5] [%] | activity at 30 µM [2] [%] | activity at 30 µM [5] [%] | further results |
| --- | --- | --- | --- | --- | --- | --- | --- | --- |
| COc1ccc([C@H]2N[C@H](C(=O)O)Cc3c2[nH]c2ccccc32)cc1CN1CCN(c2ccccc2F)CC1 (relative stereo) [trans-ned-19, trans-Ned-19] | – | – | – | – | – | – | – | IC50 [1]: 156 ± 3 µM |
| CCS(=O)(=O)Nc1cccc(C(=C2CCCCC2)c2cnc[nH]2)c1 [A-315456] | 97.1 ± 3 | 8.4 ± 1.2 | −4.44 ± 0.01 | 13.0 ± 5.0 | 95.2 ± 4 | – | – | Effect on GPN-mobilizable Ca2+ and LysoTracker (LTR) staining (in words) [2]: no effect |
| CN1CCC[C@@H]1CCO[C@](C)(c1ccccc1)c1ccc(Cl)cc1 [Clemastine fumarate, clemastine fumarate] | – | – | – | – | – | 69.5 ± 13 | 70.9 ± 15 | – |
| COc1cc(C(=O)OCCCN2CCCN(CCCOC(=O)c3cc(OC)c(OC)c(OC)c3)CC2)cc(OC)c1OC [Dilazep hydrochloride, dilazep hydrochloride] | – | −10.9 ± 8.1 | −5.03 ± 0.11 | 16.0 ± 3.0 | – | 65.1 ± 5 | 69.6 ± 9 | – |
| COc1ccc2cc1Oc1ccc(cc1)C[C@H]1c3cc(c(OC)cc3CCN1C)Oc1c(O)c(OC)cc3c1[C@H](C2)N(C)CC3 [Fangchinoline] | – | – | – | – | – | – | – | Effect on size of IP3-evoked Ca2+ transients (in words) (IP3-evoked Ca^2+ release): lesser effects; Peak amplitude of NAADP-evoked Ca2+ release, % of control response [1]: 47 ± 2%; Effect on size of cADPR-evoked Ca2+ transients (in words) [6]: lesser effects |
| OCCN1CCN(CCCN2c3ccccc3Sc3ccc(C(F)(F)F)cc32)CC1 [Fluphenazine dihydrochloride, fluphenazine dihydrochloride] | – | – | – | – | – | 67.6 ± 14 | 69.8 ± 10 | – |
| Cl.Cl.c1ccc(CCCN2CCN(CCOC(c3ccccc3)c3ccccc3)CC2)cc1 [GBR-12935 dihydrochloride] | 61.1 ± 15 | 3.4 ± 3.3 | −4.90 ± 0.13 | 10.7 ± 7.0 | 67.5 ± 11 | – | – | – |
| Cl.Fc1ccc(C(OCCCc2c[nH]cn2)c2ccc(F)cc2)cc1 [IPFME, 3-(1H-Imidazol-4-yl)propyl di(p-fluorophenyl)methyl ether hydrochloride] | – | 2.9 ± 2.1 | −5.22 ± 0.08 | 13.7 ± 11 | – | 51.3 ± 18 | 56.9 ± 8 | – |
| CC1(C)C(=O)N(CCN2CCC(C(=O)c3ccc(F)cc3)CC2)c2ccccc21.Cl [LY-310,762 hydrochloride] | 108.1 ± 11 | −2.8 ± 3.8 | −4.75 ± 0.05 | 16.3 ± 8.7 | 90.2 ± 8 | – | – | – |
| CCN(CC)CC#CCOC(=O)C(O)(c1ccccc1)C1CCCCC1 (centres unmarked) [Oxybutynin Chloride, oxybutynin chloride] | – | – | – | – | – | 62.1 ± 4 | 59.2 ± 9 | – |
| CCCCCCCCCC(=O)NC(CN1CCOCC1)C(O)c1ccccc1.Cl (centres unmarked) [PDMP, PDMP hydrochloride] | 91.4 ± 2 | 6.0 ± 0.5 | −4.80 ± 0.05 | 18.3 ± 17 | 91.6 ± 13 | – | – | Effect on GPN-mobilizable Ca2+ and LysoTracker (LTR) staining (in words) [2]: no effect |
| Cc1nc(N=Nc2ccc(S(=O)(=O)[O-])cc2S(=O)(=O)[O-])c(COP(=O)([O-])[O-])c(C=O)c1O.[Na+].[Na+].[Na+].[Na+] [PPADS, PPADS tetrasodium salt] | 91.3 ± 16 | 84.8 ± 1.6 | −5.27 ± 0.01 | – | 92.1 ± 7 | – | – | IC50 [1]: 5.4 ± 0.2 µM |
| Cc1nc(N=Nc2cc(S(=O)(=O)O)c3cc([N+](=O)[O-])cc(S(=O)(=O)O)c3c2)c(COP(=O)(O)O)c(C=O)c1O [PPNDS] | – | – | – | 22 ± 4 | – | – | – | – |
| CN1CCN(CCCN2c3ccccc3Sc3ccc(Cl)cc32)CC1 [Prochlorperazine dimaleate, prochlorperazine dimaleate salt] | – | – | – | – | – | 20.2 ± 17 | 24.3 ± 14 | – |
